Assay results from patent US20200023018A1, “MODULATION OF GUT MICROBIOTA IN HUNTINGTON'S DISEASE AND RETT SYNDROME” (priority 2017, published 2020).
Entries after “also recorded” stand apart in the source; their conditions may differ.

How the values were obtained:
Rett mice [1] = experiment: Whole body plethysmography in Rett mice; format: in vivo; conditions: predicted
Excerpt: Whole body plethysmography are used to measure breathing irregularities in Rett mice. This phenotype is common in Rett patients (Lombardi et al., 2015). An accumulating body of literature supports the potential importance of vagus nerve in the regulation of breathing. We predict that intestinal dysbiosis in Rett impairs the vagus nerve activity and exacerbate the breathing abnormalities. […] The Buxco Fine Pointe Unrestrained Whole Body Plethysmograph system from Data Sciences International (DSI; St. Paul, Minn.) are used for these measurements.

human microbiota = conditions: cited from earlier work
humans = conditions: cited from earlier work
Rett mice [2] = experiment: Neurogenesis in Rett mice (doublecortin and ki67 staining); format: in vivo
Excerpt: FIGS. 18A-C are a series of graphs and images depicting effects of microbiota on neurogenesis in Rett mice in accordance with some embodiments herein. FIG. 18A is a series of images depicting doublecortin staining of bilateral hippocampus in vehicle-treated (top panels) and rifaximin-treated Rett mice (bottm panels). FIG. 18B is a graph showing quantification of doublecortin positive cells in the dentate gyrus of bilateral hippocampi (2 layers) from 4 vehicle-treated and 6 rifaximin-treated animals, FIG. 18C is a series of images showing ki67 positive cells (arrows) in the SVZ (subventricular zone) of vehicle (top) and rifaximin-treated Rett mice. Boxed areas highlight regions with dramatic changes (considerably more ki67-positive cells are observed in the rifaximin-treated mose). NeuN staining for neurons (NeuN) is observed as bright foci throughout.

[3] = tested on: Hepatic Encephalopathy (HE) patients; conditions: clinical studies; cited from earlier work
Rett mice [4] = experiment: GI pathology and metabolic changes in Rett mice; format: in vivo
Excerpt: In FIG. 14A, each point represents a mouse. N=6 each in FIG. 14C. […] N=6 for FIGS. 14E and 14F.
It was examined whether eliminating the intestinal microbiota of Rett mice alters GI pathology.

[5] = tested on: Parkinson's disease patients; conditions: pilot study; cited from earlier work
Drosophila model of HD = experiment: Aggregation of mHDx1 in a Drosophila model of HD (immunohistochemistry, Western blot); format: in vivo
Excerpt: FIG. IB is an image of a Western blot (WB) of different batch pooled larvae examined for MHDx1 aggregation. FIG. 1C is a series of images depicting immunohistochemistry similar to FIG. 1A except that adult flies were used in FIG. 1C. FIG. 1D depicts a WB similar to FIG. 1B, except that adult flies were used in FIG. 1D. The Gal4 induction system with mHDx1 (120Q) downstream of UAS (upstream activation sequence) and the gal4 transactivator downstream of Drosophila neuronal-specific promoter Elav was used to induce the expression of mHDx1 in the nervous system of offspring. In FIG. 1C, the central brain region is shown.
Without being limited by theory, it is contemplated that intestinal microbiota contributes to the aggregation of mutant HTT in the enteric nervous stem (ENS). In a Drosophila model of HD (Barbaro et al., 2015), inducing the expression of a mutant HTT exon-1 fragment (mHDx1) in the nervous system promoted aggregation in the ENS of larvae in the vicinity of the gut (FIGS. 1A and 1B). The initial appearance of aggregates in the larval ENS is thus observed.
Accordingly, it is observed herein that treatment with an antibiotic in accordance with some embodiments herein decreases aggregates of mutant Huntingtin protein.

Rett mice [6] = experiment: Semi-quantitative PCR of gut bacteria in Rett mice; format: in vivo
Excerpt: FIG. 7 is an image depicting the results of semi-quantitative PCR of Rett mice of some embodiments. […] Top panels are Eubacteria amplification used as a positive control.
FIG. 19 is an image showing the results of semi-quantitative PCR in WT and Rett mice in accordance with some embodiments herein.
Less is known about the role of Tenericutes in human health. In animals however, the presence of Tenericutes correlates with digestion of crude fiber (Niu et al., 2015).

Rett mice [7] = experiment: Behaviors of Rett mice (nest building, climbing, wire-mesh hanging, clasping); format: in vivo
Protocol: FIG. 58 is a graph depicting that rifaximin-treated mice make more attempts at climbing a wired-mesh cylinder within a 2 min time allowed. FIG. 5C is a graph depicting that testing muscle strength by wired mesh hanging assay. […] N=6. Scoring and procedures were as described in Southwell et al., 2009.
N=6. Scoring and procedures were as described in Southwell et al., 2009.
Nest building is indicative of rodents' well-being, daily activity, positive motivational state, and healthy brain functions (Jirkof, 2014).
Nest building is indicative of rodents' wellbeing, daily activity, positive motivational state, and healthy brain functions (Jirkof, 2014). […] This is consistent with the improved mobility in Rett mice observed herein. The data herein can be confirmed with additional behavioral tests, including rotarod, beam crossing, and open field. These studies can confirm benefits of rifaximin therapy on the CNS pathology and/or aberrant behaviors in Rett syndrome.
This is based on observations that male mice start displaying symptoms when they are ˜10 weeks old.
Hind limb clasping is a marker of disease progression in Rett syndrome and other diseases with motor defects. In this assay animals were suspended by the tail ˜30 cm above the tabletop for 1 min and recorded with a video camera. No clasping is scored as 0, periodic clasping and extension is scored as 1, and full hind limb clasping was scored with occasional extension is scored as 2. Severe clasping is scored as 3.

Rett mice [8] = experiment: Staining of brain sections of Rett mice for astrocyte and microglial markers; format: in vivo
Excerpt: FIG. 15A depicts staining with markers of activated astrocyte GFAP (center column) and GS (right column); Overlay of GFAP and GS is shown in left column. […] The Iba-1 and CD11 generally colocalized throughout the hippocampal region, but Iba-1 was expressed at higher levels in the vehicle-treated group (see, e.g, arrow), and lower levels in the rifaximin-treated group.
The finding can be re-confirmed and quantified for statistical analysis. Elevation of GFAP and GS is linked to astrocytes activation and inflammation. Astrocytes are recognized as therapeutic targets for neuroinflammation, neurodegeneration, and neuropsychiatric disorders. Subsets of gut microbes produce molecules, which reach the CNS, lower astrocytes activation, and subsequently reduce the production of inflammatory cytokines (Rothhamrner et al., 2016). Gut bacteria also greatly influence the development of microglia, which are the CNS immune cells (Erny et al., 2015).
For example, animals can be gavaged with known amounts of rifaximin to ensure equal delivery.

Rett mice [9] = experiment: Learning and memory of Rett mice (novel object recognition, Barnes Maze); format: in vivo; conditions: rifaximin-treated Rett mice; expected
Protocol: GF WT and Rett mice are also tested for these behaviors the results are compared with the rifaxitnin-treated cohorts.
We previously used this test in an environmental mouse model of autism (Hsiao et al., 2013). Rodents in general spend more time exploring a novel object than a familiar one. The ability to choose the novel object is indicative of learning and recognition memory. The novel object recognition task is conducted in an open field arena with two different kinds of objects. Both objects are generally consistent in height and volume, but are different in shape and appearance. During habituation, the animals are allowed to explore an empty arena. […] The time spent exploring each object and the discrimination index percentage are recorded. This test is used, among other experiments, to assess the cognitive ability of vehicle- and rifaximin-treated Rett mice as well as GF cohorts and quantify and compare the results.
In this test mice learn the position of a hole to escape the brightly lit open surface of the maze. […] Rett mice as well as GF cohorts and quantify and compare the results. For data acquisition the amount of time required for the animal to locate the goal box using visuo-spatial cues surrounding the maze periphery are measured. The number of errors the mice make are recorded to find the escape hole. […]

[10] = Rett mice treated after weaning for 6 weeks
[11] = brain sections from the cortical regions, some of the treated Rett mice, compared to vehicle

## CO[C@H]1/C=C/O[C@@]2(C)Oc3c(C)c(O)c4c(O)c(c5c(nc6cc(C)ccn65)c4c3C2=O)NC(=O)/C(C)=C\C=C\[C@H](C)[C@H](O)[C@@H](C)[C@@H](O)[C@@H](C)[C@H](OC(C)=O)[C@@H]1C [rifaximin]
Rett mice [1]
  breathing defects: ameliorate some of the breathing defects
Human microbiota
  proliferation of probiotic species including Bifidobacteria: promotes the proliferation
humans
  safety and tolerability: safe and well tolerated
Rett mice [2]; compared to vehicle, doublecortin staining
  hippocampal neurogenesis: enhanced
Rett mice [2]; compared to vehicle, hippocampus
  dendritic arborization: enhanced
Rett mice [2]; ki67
  proliferation of cells in the subventricular zone (SVZ): Enhanced proliferation
[3]
  bacterial load: decreases bacterial load
  leaky gut: corrects leaky gut
  severity of aberrant behaviors (anxiety, irritability, depression, motor symptoms, cognitive impairment): reduces the severity of several aberrant behaviors
Rett mice [4]; Rett mice
  GI and metabolic symptoms of Rett mice: eliminated the GI and metabolic symptoms
  inflammatory appearance of the GI tract: reduces the inflammatory appearance of the GI tract
Rett mice [4]; [10]
  colon length: selectively elongates the colon
  intestinal obesity: prevents intestinal obesity
Rett mice [4]; female Rett mice
  accumulation of abdominal fat: prevented
  weight gain: prevented
[5]
  motor functions: improved motor functions
Drosophila model of HD; Drosophila HD larvae generated in the presence of rifaximin
  aggregation of mHDx1 in larvae: lowers the aggregation of mHDx1
Drosophila model of HD; adult HD flies
  aggregation of mHDx1 in the CNS of adult flies: reduces the aggregation of mHDx1
Rett mice [6]
  abundance of Bifidobacteria in the GI tract: did not increase
  abundance of the phylum Tenericutes: increased abundance
Rett mice [7]
  activity in the cage environment: more active
  hind limb clasping phenotype: significantly reduced clasping phenotype
  nest building: build better nests
  wire-mesh hanging assay (muscle strength): perform better; also recorded: enhanced muscle strength
Rett mice [7]; 2 min time allowed
  climbing a wire-meshed cylinder: perform better; also recorded: make more attempts to climb
Rett mice [8]; [11]
  staining for glial fibrillary acidic protein (GFAP): reduced staining
  staining for glutamine synthetase (GS): reduced staining
Rett mice [8]; brain sections of Rett mice, some of the treated animals
  numbers of microglia (microglial biomarkers): numbers were reduced
Rett mice [8]; hippocampal region of Rett mice, versus vehicle-treated group
  Iba-1 expression: lower levels
Rett mice [9]
  learning and memory: learning and memory are improved
